Reference: patent US9765075B2, “Substituted bridged urea analogs as sirtuin modulators” (GLAXOSMITHKLINE LLC, priority 2013, dated 2017)
Like-named read-outs stand apart in the source and are kept apart here.

Biological target: T1, SIRT1 (Homo sapiens, UniProt Q96EB6)
T1 sequence (Q96EB6 1-747): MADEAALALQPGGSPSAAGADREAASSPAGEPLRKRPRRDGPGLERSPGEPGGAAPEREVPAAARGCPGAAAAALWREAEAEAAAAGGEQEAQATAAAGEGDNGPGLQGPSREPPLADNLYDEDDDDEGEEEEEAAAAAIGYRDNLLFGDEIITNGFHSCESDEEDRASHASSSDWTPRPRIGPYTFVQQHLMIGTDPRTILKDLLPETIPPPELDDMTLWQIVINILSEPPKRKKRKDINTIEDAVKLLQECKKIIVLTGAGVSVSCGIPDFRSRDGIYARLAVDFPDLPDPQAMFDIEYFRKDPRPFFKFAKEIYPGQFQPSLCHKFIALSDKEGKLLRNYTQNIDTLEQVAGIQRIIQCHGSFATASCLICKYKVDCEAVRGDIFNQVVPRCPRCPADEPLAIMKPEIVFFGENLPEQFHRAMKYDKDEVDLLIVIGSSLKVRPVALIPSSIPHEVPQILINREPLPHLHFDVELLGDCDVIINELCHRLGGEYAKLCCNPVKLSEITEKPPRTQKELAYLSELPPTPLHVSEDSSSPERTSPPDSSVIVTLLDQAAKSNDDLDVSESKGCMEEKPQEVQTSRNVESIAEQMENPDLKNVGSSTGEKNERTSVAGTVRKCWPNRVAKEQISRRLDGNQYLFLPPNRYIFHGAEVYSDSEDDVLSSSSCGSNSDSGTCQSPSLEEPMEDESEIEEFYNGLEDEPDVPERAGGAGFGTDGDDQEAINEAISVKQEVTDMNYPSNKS
Experiment: Trp mass spectrometry assay (SIRT1 activation)
Assay type: biochemical
Conditions: for Emax: percent maximum fold activation of SIRT1, read-out: Tryp % Fold Act
Outline: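 N-His-tagged SIRT1 (10 nM), expressed in E. coli, was incubated with 0.5 μM Ac-RHKK(Ac)W-NH2 peptide and 120 μM NAD+ for 25 min at 25 °C in HEPES pH 7.5 with […]. The reaction was stopped with formic acid and O-acetyl-ADP-ribose or deacetylated peptide was quantified by mass spectrometry. Results are given as EC1.5 and percent maximal activation relative to DMSO control.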

[1] = concentration of test compound that results in 150% activation of SIRT1, Trp peptide substrate
[2] = Trp mass spectrometry assay, EC1.5 = concentration giving 150% activation of SIRT1
[3] = Trp mass spectrometry assay, EC1.5 = concentration of test compound that results in 150% activation of SIRT1

SMILES	Tryp AVG EC1.5 (μM) [1]	Emax (Trp peptide substrate) [%]	Tryp AVG EC1.5 (μM) [2]	Emax (Trp mass spectrometry assay) [%]	Tryp AVG EC1.5 (μM) [3]
O=C(Nc1ccccn1)N1c2nc(-c3cccc(N4CCC(C(F)(F)F)C4)c3)ccc2N2CC[C@H]1C2 (some centres unmarked) [Example 318]	B (EC1.5 1-25 μM)	≥ 150	–	–	–
CS(=O)(=O)Nc1cccc(NC(=O)N2c3nc(-c4cccc(C(F)(F)F)c4)ccc3N3CC[C@H]2C3)c1 [Example 642]	–	–	A (EC1.5<1 μM)	≥ 150	–
O=C(Nc1cnccn1)N1c2nc(-c3ccnc(N4CC[C@@H](F)C4)c3)ccc2N2CC[C@H]1C2 [Example 462]	B (EC1.5 1-25 μM)	≥ 150	–	–	–
Cc1cc(-c2ccc3c(n2)N(C(=O)Nc2cnc(OC[C@@H](O)CO)cn2)[C@H]2CCN3C2)ccn1 [Example 561]	B (EC1.5 1-25 μM)	≥ 150	–	–	–
COc1cc(NC(=O)N2c3nc(-c4cncc(C(F)(F)F)c4)ccc3N3CC[C@H]2C3)ncn1 [Example 317]	B (EC1.5 1-25 μM)	≥ 150	–	–	–
COc1cc(-c2cccc(C(F)(F)F)c2)nc2c1N1CC[C@@H](C1)N2C(=O)Nc1nc(C)c(C)s1 [Example 161]	–	–	–	≥ 150	A (EC1.5<1 μM)
O=C(Nc1ccccn1)N1c2nc(-c3ccnc(N4CC[C@@H](F)C4)c3)ccc2N2CC[C@H]1C2 [Example 448]	B (EC1.5 1-25 μM)	≥ 150	–	–	–
COc1cc(NC(=O)N2c3nc(-c4cccc(N(C)C)c4)ccc3N3CCC[C@H]2C3)ncn1 [Example 385]	A (EC1.5<1 μM)	≥ 150	–	–	–
O=C(Nc1cccnc1)N1c2nc(-c3cccc(C(F)(F)F)c3)ccc2N2CC[C@H]1C2 [Example 17]	–	–	–	≥ 150	–
COc1cc(NC(=O)N2c3nc(-c4cccc(C(F)(F)F)c4)ccc3N3CCC2CC3)ncn1 [Example 168]	–	–	–	≥ 150	A (EC1.5<1 μM)
O=C(Nc1ccccn1)N1c2nc(-c3cccc(N4CCC(F)(F)C4)c3)ccc2N2CC[C@H]1C2 [Example 254]	A (EC1.5<1 μM)	≥ 150	–	–	–
O=C(Nc1cnccn1)N1c2nc(-c3cccc(N4CC[C@@H](F)C4)c3)ccc2N2CC[C@H]1C2 [Example 267]	B (EC1.5 1-25 μM)	≥ 150	–	–	–
O=C(Nc1cncc(F)c1)N1c2nc(-c3cncc(F)c3)ccc2N2CCC1CC2 [Example 571]	B (EC1.5 1-25 μM)	≥ 150	–	–	–
Cc1ccc(-c2ccc3c(n2)N(C(=O)Nc2ccncn2)[C@H]2CCCN3C2)cn1 [Example 479]	B (EC1.5 1-25 μM)	≥ 150	–	–	–
O=C(Nc1cccnn1)N1c2nc(-c3cccc(Cl)c3)ccc2N2C[C@@H](O)[C@H]1C2 [Example 682]	–	–	B (EC1.5 1-25 μM)	≥ 150	–
Cc1ccncc1-c1ccc2c(n1)N(C(=O)Nc1cccnc1)[C@H]1CCCN2C1 [Example 516]	B (EC1.5 1-25 μM)	≥ 150	–	–	–
N#Cc1cccc(-c2ccc3c(n2)N(C(=O)Nc2cccnc2)[C@@H]2CCCN3C2)c1 [Example 210]	–	–	–	≥ 150	B (EC1.5 1-25 μM)
N#Cc1cccc(-c2ccc3c(n2)N(C(=O)Nc2ccc(F)cn2)[C@H]2CCN3C2)c1 [Example 130]	–	–	–	≥ 150	A (EC1.5<1 μM)
Cc1ccc(-c2ccc3c(n2)N(C(=O)Nc2cccnn2)[C@H]2CCCN3C2)cn1 [Example 467]	B (EC1.5 1-25 μM)	≥ 150	–	–	–
O=C(Nc1cccc(-c2ccc(C(F)(F)F)cn2)c1)N1c2nc(-c3cccc(C(F)(F)F)c3)ccc2N2CC[C@H]1C2 [Example 618]	B (EC1.5 1-25 μM)	≥ 150	–	–	–
CS(=O)(=O)N1CCCN(c2ccc3c(n2)N(C(=O)Nc2ccncn2)[C@H]2CCCN3C2)CC1 [Example 433]	B (EC1.5 1-25 μM)	≥ 150	–	–	–

SMILES	Tryp AVG EC1.5 (μM) [1]	Emax (Trp peptide substrate) [%]	Tryp AVG EC1.5 (μM) [2]	Emax (Trp mass spectrometry assay) [%]	Tryp AVG EC1.5 (μM) [3]
O=C(Nc1cccc(OC[C@H](O)CO)n1)N1c2nc(-c3cccc(C(F)(F)F)c3)ccc2N2CC[C@H]1C2 [Example 818]	–	–	A (EC1.5<1 μM)	≥ 150	–
O=C(Nc1ccncn1)N1c2nc(-c3cccc(Cl)c3)ccc2N2CCC1CC2 [Example 534]	B (EC1.5 1-25 μM)	≥ 150	–	–	–
Cc1nc(NC(=O)N2c3nc(-c4cccc(Cl)c4)ccc3N3CCC2CC3)sc1C [Example 569]	B (EC1.5 1-25 μM)	≥ 150	–	–	–
Cc1ccc(-c2ccc3c(n2)N(C(=O)Nc2ccccn2)[C@H]2CCCN3C2)cn1 [Example 465]	B (EC1.5 1-25 μM)	≥ 150	–	–	–
O=C(Nc1ccc(F)cn1)N1c2nc(-c3ccnc(N4CCC(C(F)(F)F)C4)c3)ccc2N2CC[C@H]1C2 (some centres unmarked) [Example 391]	A (EC1.5<1 μM)	≥ 150	–	–	–
Cc1cc(-c2ccc3c(n2)N(C(=O)Nc2cncc(F)c2)[C@H]2CCN3C2)ccn1 [Example 238]	B (EC1.5 1-25 μM)	≥ 150	–	–	–
O=C(Nc1cnccn1)N1c2nc(-c3cccc(N4CCC(F)(F)C4)c3)ccc2N2CC[C@H]1C2 [Example 239]	A (EC1.5<1 μM)	≥ 150	–	–	–
CS(=O)(=O)c1cncc(-c2ccc3c(n2)N(C(=O)Nc2cnccn2)[C@H]2CCCN3C2)c1 [Example 378]	A (EC1.5<1 μM)	≥ 150	–	–	–
O=C(Nc1ccncn1)N1c2nc(N3CCCC(C(F)(F)F)C3)ccc2N2CC[C@H]1C2 (some centres unmarked) [Example 211]	–	–	–	≥ 150	B (EC1.5 1-25 μM)
O=C(Nc1cncc(F)c1)N1c2nc(-c3cccc(Cl)c3)ccc2N2C[C@@H](O)[C@H]1C2 [Example 677]	–	–	B (EC1.5 1-25 μM)	≥ 150	–
O=C(CCCC[C@@H]1SCC2NC(=O)NC21)NCCCCCC(=O)NCc1ccc(NC(=O)N2c3nc(-c4cccc(C(F)(F)F)c4)ccc3N3CC[C@H]2C3)cc1 (some centres unmarked) [Example 428]	A (EC1.5<1 μM)	≥ 150	–	–	–
O=C(Nc1cccc(-c2cccnc2)c1)N1c2nc(-c3cccc(C(F)(F)F)c3)ccc2N2CC[C@H]1C2 [Example 660]	–	–	A (EC1.5<1 μM)	≥ 150	–
O=C(Nc1ccncn1)N1c2nc(-c3cncc(F)c3)ccc2N2CCC1CC2 [Example 573]	C (EC1.5>25 μM)	< 150	–	–	–
O=C(Nc1ccc(F)cn1)N1c2nc(N3CCCC(C(F)(F)F)C3)ccc2N2CCC[C@@H]1C2 (some centres unmarked) [Example 362]	C (EC1.5>25 μM)	≥ 150	–	–	–
N#Cc1cccc(-c2ccc3c(n2)N(C(=O)Nc2ccccn2)[C@@H]2CCCN3C2)c1 [Example 225]	B (EC1.5 1-25 μM)	≥ 150	–	–	–
O=C(Nc1nc2ccccc2s1)N1c2nc(-c3cccc(C(F)(F)F)c3)ccc2N2CC[C@H]1C2 [Example 90]	–	–	–	≥ 150	A (EC1.5<1 μM)
O=C(Nc1ccncc1F)N1c2nc(-c3cccc(C(F)(F)F)c3)ccc2N2CCC[C@H]1C2 [Example 42]	–	–	–	≥ 150	–
CC(C)(C)OC(=O)N1CCCc2ccc(NC(=O)N3c4nc(-c5cccc(C(F)(F)F)c5)ccc4N4CC[C@H]3C4)cc21 [Example 610]	B (EC1.5 1-25 μM)	≥ 150	–	–	–
O=C(Nc1cccc(-c2cnco2)c1)N1c2nc(-c3cccc(C(F)(F)F)c3)ccc2N2CC[C@@H]1C2 [Example 233]	A (EC1.5<1 μM)	≥ 150	–	–	–
CC(C)(C)OC(=O)NCC#Cc1cc(NC(=O)N2c3nc(-c4cccc(C(F)(F)F)c4)ccc3N3CCC[C@H]2C3)cc(-c2cnco2)c1 [Example 760]	–	–	A (EC1.5<1 μM)	≥ 150	–
